This note sets out measurements from PubChem BioAssay AID624003 (Vanderbilt Specialized Chemistry Center, 2012).

pIC50: −log10 of the molar value.

The target of this experiment is Phospholipase D1 (Homo sapiens) + Phospholipase D1 (Homo sapiens) (UniProt Q13393+Q13393). Nature of the experiment: cellular phospholipase D1 inhibitors, IC50 – cell-based, Lib32, assay 2A, dose response (AID 624003). To be noted: cellular PLD1 activity assay.
Chain of Phospholipase D1 (Homo sapiens) + Phospholipase D1 (Homo sapiens) (Q13393 whole entry, looked up): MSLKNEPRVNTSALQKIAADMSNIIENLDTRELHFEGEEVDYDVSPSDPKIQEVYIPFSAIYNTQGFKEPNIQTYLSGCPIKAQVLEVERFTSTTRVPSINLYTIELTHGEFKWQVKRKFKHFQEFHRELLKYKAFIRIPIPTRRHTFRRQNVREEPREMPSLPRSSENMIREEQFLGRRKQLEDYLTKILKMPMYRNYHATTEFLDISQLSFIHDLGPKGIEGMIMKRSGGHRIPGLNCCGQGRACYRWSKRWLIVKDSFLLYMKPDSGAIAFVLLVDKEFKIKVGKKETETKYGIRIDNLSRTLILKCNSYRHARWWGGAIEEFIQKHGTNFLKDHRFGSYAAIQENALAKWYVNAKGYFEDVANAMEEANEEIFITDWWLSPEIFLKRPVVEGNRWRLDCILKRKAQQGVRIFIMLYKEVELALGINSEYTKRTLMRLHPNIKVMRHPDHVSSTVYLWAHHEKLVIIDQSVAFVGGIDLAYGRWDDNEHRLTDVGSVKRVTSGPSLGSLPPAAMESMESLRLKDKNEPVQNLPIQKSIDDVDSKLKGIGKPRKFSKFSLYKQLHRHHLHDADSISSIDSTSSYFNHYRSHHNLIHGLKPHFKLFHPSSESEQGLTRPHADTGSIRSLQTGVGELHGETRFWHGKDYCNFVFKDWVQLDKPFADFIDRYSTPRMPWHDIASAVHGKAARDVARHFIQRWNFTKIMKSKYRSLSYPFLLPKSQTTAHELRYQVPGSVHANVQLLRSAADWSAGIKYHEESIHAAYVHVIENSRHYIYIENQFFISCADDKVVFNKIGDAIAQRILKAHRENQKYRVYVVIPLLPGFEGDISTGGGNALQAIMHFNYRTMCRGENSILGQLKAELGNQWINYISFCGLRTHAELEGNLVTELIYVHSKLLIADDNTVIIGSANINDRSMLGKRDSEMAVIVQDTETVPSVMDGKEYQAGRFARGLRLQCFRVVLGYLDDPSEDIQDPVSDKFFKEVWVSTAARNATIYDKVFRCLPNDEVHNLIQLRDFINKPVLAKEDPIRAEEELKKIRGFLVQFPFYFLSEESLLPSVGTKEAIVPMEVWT
Chain of Phospholipase D1 (Homo sapiens) + Phospholipase D1 (Homo sapiens) (Q13393 whole entry, looked up): as above
One may read the pIC50 as the IC50 on a negative log10 scale, so that one unit is a factor of ten. Take `C[C@@H](CN1CCC2(CC1)C(=O)NCN2c1cccc(F)c1)NC(=O)c1ccc(F)cc1`: the negative logarithm of the IC50 (pIC50) is 7.70.
The value for `O=C(NCCN1CCC2(CC1)C(=O)NCN2c1cccc(F)c1)c1ccc(Br)cc1` was 5.81; that for `C[C@@H](CN1CCC2(CC1)C(=O)NCN2c1cccc(F)c1)NC(=O)c1cccc([N+](=O)[O-])c1` was 6.91; that for `COc1cc(C(=O)N[C@@H](C)CN2CCC3(CC2)C(=O)NCN3c2cccc(F)c2)cc(OC)c1OC` was 7.66.
The value for `C[C@@H](CN1CCC2(CC1)C(=O)NCN2c1cccc(F)c1)NC(=O)c1ccc(F)cc1F` was 6.87.
The figure for `C[C@@H](CN1CCC2(CC1)C(=O)NCN2c1cccc(F)c1)NC(=O)c1ccc(F)c(F)c1` is 7.07; for `COc1cc(C(=O)NCCN2CCC3(CC2)C(=O)NCN3c2cccc(F)c2)cc(OC)c1OC` it is 5.36.
As for `C[C@@H](CN1CCC2(CC1)C(=O)NCN2c1cccc(F)c1)NC(=O)c1cccc(F)c1`, the pIC50 is 7.14.
